In patent US6174914A, “Method of inhibiting cytokine release from human ocular cells” (Alcon Laboratories, Inc., priority 1999, dated 2001):
Where a name gives a salt, the structure may show the parent alone.

Tests used:
[1] = cited from earlier work; for activity taught in U.S. Pat. Nos. 4,871,865 and 4,923,892: Burroughs Wellcome Patents
[2] = test system: IL-6 secretion in human conjunctival epithelial cells; assay: Inhibition of histamine-stimulated IL-6 secretion from cultured human conjunctival epithelial cells (ELISA); assay type: cell-based; details: for potency in intact cells / inhibition of secretion compared with receptor binding: IL-6 and IL-8 secretion
Source text: Methods detailing the preparation of primary epithelial cell cultures and cytokine release studies using these cells have been described. […] Briefly, cultures of human conjunctival epithelial cells were initiated from donor tissues obtained within eight hours post mortem by various eye banks. The tissues were enzymatically digested overnight. Epithelial cells were gently scraped from the tissue surface, dissociated into a single cell suspension, and cultured in keratinocyte growth medium (Clonetics®, San Diego, Calif.). Cells were used only through passage 6. Cultures were maintained in a preconfluent state to prevent differentiation.
Several compounds with histamine H1 antagonist activity were evaluated for their ability to inhibit secretion of cytokines (IL-6 and IL-8) from cultured human conjunctival epithelial cells in response to histamine stimulation. Cells were plated at 2×10^4 cells/well and cultured overnight at 5% CO2 /37° C. The following day, fresh medium containing test compound was added directly to wells and the cells were incubated for 30 minutes prior to 24-hour stimulation with histamine (30 μM). Three separate culture wells were used for each treatment group. At harvest, supernatants were collected, centrifuged at 200× g, and stored at -20° C. Samples were analyzed for IL-6 and IL-8 by ELISA (R&D Systems, Minneapolis, Minn.) as directed by the manufacturer. The sensitivities of each ELISA are as follows: IL-6 0.7 pg/ml and IL-8 3.0 pg/ml.
Data derived from the cytokine assays were calculated as mean and standard error (SEM) values which represent the variability among identically treated culture wells. The dose-dependent effect of pharmacological agents and IC50 's were determined by linear regression. Data are expressed as mean ±S.E.M. from 3-5 independent experiments.

[3] = test system: IL-8 secretion in human conjunctival epithelial cells; assay: Inhibition of histamine-stimulated IL-8 secretion from cultured human conjunctival epithelial cells (ELISA); assay type: cell-based; details: Epithelial cell, 24 h, read-out: increase of IL-8 secretion above basal levels
Source text: Methods detailing the preparation of primary epithelial cell cultures and cytokine release studies using these cells have been described. See Gamache, et al., "Secretion of proinflammatory cytokines by human conjunctival epithelial cells," Ocul Immunol Inflamm., 5:117-128 (1997). Briefly, cultures of human conjunctival epithelial cells were initiated from donor tissues obtained within eight hours post mortem by various eye banks. The tissues were enzymatically digested overnight. Epithelial cells were gently scraped from the tissue surface, dissociated into a single cell suspension, and cultured in keratinocyte growth medium (Clonetics®, San Diego, Calif.). Cells were used only through passage 6. Cultures were maintained in a preconfluent state to prevent differentiation. Cells were identified as epithelial by positive keratin staining.
Several compounds with histamine H1 antagonist activity were evaluated for their ability to inhibit secretion of cytokines (IL-6 and IL-8) from cultured human conjunctival epithelial cells in response to histamine stimulation. Cells were plated at 2×10^4 cells/well and cultured overnight at 5% CO2 /37° C. […] Samples were analyzed for IL-6 and IL-8 by ELISA (R&D Systems, Minneapolis, Minn.) as directed by the manufacturer. […]

[4] = IL-6 and IL-8 secretion versus H1 binding

## CN(C)CCC=C1c2ccccc2COc2ccc(/C=C/C(=O)O)cc21 [11-(3-dimethylamino-propylidene)-6,11-dihydrodibenz[b,e]oxepine-2(E)-acrylic acid]
[1]
  activity taught in U.S. Pat. Nos. 4,871,865 and 4,923,892: antihistaminic and antiasthmatic activity

## CN(C)CCC=C1c2ccccc2COc2ccc(C(=O)O)cc21 [11-(3-dimethylaminopropylidene)-6,11-dihydrodibenz[b,e]oxepine-2-carboxylic acid]
[1]
  activity taught in U.S. Pat. Nos. 4,871,865 and 4,923,892: antihistaminic and antiasthmatic activity

## c1ccc(CN(CC2=NCCN2)c2ccccc2)cc1 [Antazoline, 4,5-Dihydro-N-phenyl-N-(phenylmethyl)-1H-imidazole-2-methanamine]
[2]; [4]
  less potent inhibitor of IL-6 and IL-8 secretion than predicted from histamine H1-receptor binding affinity: 20-140 fold

## CCOCCn1c(N2CCCN(C)CC2)nc2ccccc21 [Emedastine, 1H-Benzimidazole,1-(2-ethoxyethyl)-2-(hexahydro-4-methyl-1H-1,4-diazepin-1-yl),(E)-2-butenedioate (1:2)]
[2]
  potency in intact cells / inhibition of secretion compared with receptor binding: consistent with its activity determined in receptor binding assays

## C[C@@H]1CN([C@H]2CC[C@](C#N)(c3ccc(F)cc3)CC2)CC[C@]1(C(=O)O)c1ccccc1 [Levocabastine, (-)-trans-1-[cis-4-Cyano-4-(p-fluorophenyl)cyclohexyl]-3-methyl-4-phenylisonipecotic acid monohydrochloride]
[2]
  potency in intact cells / inhibition of secretion compared with receptor binding: at a level consistent with its H1 -receptor binding affinity

## CN(C)CC/C=C1/c2ccccc2COc2ccc(CC(=O)O)cc21 [Olopatadine, Z-11-(3-Dimethylaminopropylidene)-6,11-dihydrodibenz[b,e]oxepin-2-acetic acid]
[2]; [4]
  more potent inhibitor of cytokine secretion than predicted from binding data: approximately 10 fold
[1]; Kyowa patent, Wistar male rats
  activity taught in U.S. Pat. No. 5,116,863: anti-allergic and anti-inflammatory activity

## CN(C)CCC(c1ccccc1)c1ccccn1 (stereo not shown) [Pheniramine, N,N-Dimethyl-γ-phenyl-2-pyridine-propanamine]
[2]; [4]
  less potent inhibitor of IL-6 and IL-8 secretion than predicted from histamine H1-receptor binding affinity: 20-140 fold

## NCCc1c[nH]cn1 [histamine]
[2]; Homo sapiens, Epithelial cell, 24 h, read-out: increase of IL-6 secretion above basal levels
  fold induction at 30 µM: 1.59 ± 0.19
[3]
  fold induction at 30 µM: 1.8 ± 0.28
